Where a name gives a salt, the structure may show the parent alone. Read-outs that look alike come from different tables or passages of the source.

Data set [1] relates to spontaneous hypertensive rats of the Milan (MHS). In words: Systolic blood pressure fall in spontaneous hypertensive rats (MHS), tail-cuff. It counts as in vivo, rat. The conditions noted are these: five weeks, vs vehicle control.
For the next data set, the target named is Na^+,K^+-ATPase (Canis lupus familiaris, UniProt P50997). Description: Dog kidney Na+,K+-ATPase inhibition (hydrolysis of 32P-ATP). It counts as biochemical.
The next data set deals with anesthetized guinea-pig. Description: Inotropic effect and lethal dose, slow intravenous infusion in anesthetized guinea-pig.
Data set [2] relates to hypertensive ouabain-sensitive rats (OS rats). Description: Systolic blood pressure fall in hypertensive ouabain-sensitive rats (OS rats), tail-cuff. It counts as in vivo, rat. Conditions: 10 μg/kg/day by mouth, four weeks. Here is the method: The ability of these compounds to lower blood pressure was tested by using animal models with genetic arterial hypertension, in particular, spontaneous hypertensive rats of the Milan (MHS) (Bianchi G., Ferrari P., Barber B. The Milan Hypertensive strain. In Handbook of hypertension. Vol. 4: Experimental and genetic models of hypertension. Ed. W. de jong-Elsevier Science Publishers B.V., 1984:328-349) and rats made hypertensive by chronic infusion of ouabain, according to Ferrari P., et al. J. Pharm. Exp. Ther. 1998, 285, 83-94.
The procedure adopted to test the antihypertensive activity of the compounds on the above mentioned model was the following: systolic blood pressure (SBP) and heart rate (HR) were measured by an indirect tail-cuff method.
SBP and HR were measured weekly 6 hours after the treatment.

The mark [3] stands for this setting: slow intravenous infusion over 90 minutes.
Setting [4] is: Na^+,K^+-ATPase Inhibition IC50.

What is called IC50 is the point on the concentration scale where inhibition reaches its midpoint. Take `C[C@]12CCC(=NOCCN)CC1C(=O)C[C@@H]1[C@@H]2CC[C@]2(C)C(=O)CC[C@@H]12.Cl` (mixture of isomers) [Compd. 22b, (EZ) 3-(2-aminoethoxyimino)androstane-6,17-dione hydrochloride, reference compound]: in data set [1] (10 μg/kg/os daily), the SBP - % is on record as 2.2% and the “SBP - mm Hg (decrease in systolic blood pressure)” value is listed as 3.6 +/− 4.8 mm Hg. In data set [1] (100 μg/kg/os daily), the SBP - % is reported as 6.6% and the “SBP - mm Hg (decrease in systolic blood pressure)” value was 10.7 +/− 7.5 mm Hg. Besides, the IC50 at Na^+,K^+-ATPase (dog kidney enzyme, read-out: Na^+,K^+-ATPase Inhibition IC50) came to 0.33 µM. For the same compound, in the data set with anesthetized guinea-pig (20 minutes after the end of the infusion), the “% decrease from Emax after 20 min from the end of the infusion” value is given as 100%. Further, the “Lethal dose/ED80” value in the data set with anesthetized guinea-pig (calculated in the died animals) is 22.6. Moreover, the Maximum dose infused in the data set on anesthetized guinea-pig (in the survived animals) was 32.1 µmol/kg. In addition, in the data set on anesthetized guinea-pig (setting [3]), the Dead/treated is given as 7/8, the “ED80 (dose increasing +dP/dTmax by 80%)” value is 1.82 µmol/kg, the “EDmax (dose inducing maximum positive inotropic effect)” value turned out to be 5.74 µmol/kg and the “Emax % increase in +dP/dTmax” value worked out at 182%.

As for `CC12CCC3C(CCN(C=O)C4CC(=NOC5CCNC5)CCC34C)C1CCC2=O` [I-ap, (E,Z) 3-[3-(R)-Pyrrolidinyl]oxyimino-6-aza-6-formyl-7a-homoandrostane-17-one hydrochloride], in data set [2], the SBP - % is on record as 9.4%, the “SBP - mm Hg (fall)” value was found to be 15.0 mm Hg and the “SBP mm Hg” value is 154.0 mm Hg. On Na^+,K^+-ATPase (setting [4]), this compound displayed an IC50 of 35 µM.

For `CC12CCC3C(CC(=O)NC4CC(=NOCCN)CCC43C)C1CCC2=O` (stereo not drawn) [I-aa, (E,Z) 3-(2-Aminoethoxyimino)-6-aza-7a-homoandrostane-7,17-dione hydrochloride], the SBP - % in data set [2] was 10.0%; in data set [1] (0.001 μg/kg/os daily), 0.0%; in data set [1] (0.01 μg/kg/os daily), 5.2%; in data set [1] (0.1 μg/kg/os daily), 6.5%; in data set [1] (1 μg/kg/os daily), 6.0%; in data set [1] (10 μg/kg/os daily) it was 7.1%. In data set [2], the “SBP - mm Hg (fall)” value was 17.0 mm Hg. Moreover, in data set [2], the “SBP mm Hg” value worked out at 153.0 mm Hg. Moreover, the “SBP - mm Hg (decrease in systolic blood pressure)” value is reported as 1.0 +/− 1.1 mm Hg in data set [1] (0.001 μg/kg/os daily); 8.8 +/− 1.6 mm Hg in data set [1] (0.01 μg/kg/os daily); 11.3 +/− 1.5 mm Hg in data set [1] (0.1 μg/kg/os daily); 10.0 +/− 2.1 mm Hg in data set [1] (1 μg/kg/os daily); 12.3 +/− 1.1 mm Hg in data set [1] (10 μg/kg/os daily). Besides, the IC50 against Na^+,K^+-ATPase (setting [4]) was determined as 25 µM.

(Values after US8022203B2, “Amino derivatives of beta-homoandrostanes and beta-heteroandrostanes” (Sigma-Tau Industrie Farmaceutiche Riunite S.p.A., priority 2006, dated 2011).)
